The source of these data is PubChem BioAssay (NCI).

Some test systems named below: HCT-116 colon; HCT-15 colon; HT29 colon; MALME-3M melanoma; NCI-H460 lung; OVCAR-3 ovarian; OVCAR-5 ovarian; SK-MEL-5 melanoma; U251 CNS; UO-31 renal.
Assay in all cases: NCI anticancer screen, dose series, 48 h

Several values for one entry are separate records, joined by “and”; a condition that tells them apart may be missing. Equal values may be shown once.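 Dose response: 5 concentrations. Exposure: 48 h. Format: 96-well plates. Endpoint: linear interpolation; highest concentration if not reached. GI50 marks 50% less growth. The concentration for full growth arrest is given as TGI.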

As to `COc1ccc(C2COc3c(ccc(O)c3C)C2)cc1OC` (configuration not stated), the TGI in the test on HCT-116 colon is 153 µM; in the test with HCT-15 colon, above 200 µM; with HT29 colon, above 200 µM; in the test with MALME-3M melanoma it was above 200 µM; in the test on NCI-H460 lung, above 193 µM; in the test with OVCAR-3 ovarian it was above 195 µM. Moreover, the TGI in the test on OVCAR-5 ovarian was above 162 µM; with SK-MEL-5 melanoma, 24.6 µM; in the test on U251 CNS it was above 200 µM; in the test with UO-31 renal, 178 µM.
On to `CCOC(=O)c1c(OCC)[nH]c(=O)c(C(c2cccs2)c2c(O)c(C(=O)OCC)c(OCC)[nH]c2=O)c1O`, for which the TGI with HCT-116 colon is 45 µM; in the test with HCT-15 colon, 37.5 µM; with HT29 colon it was 35.3 µM; in the test with MALME-3M melanoma, 25.6 µM; in the test with NCI-H460 lung, 39.8 µM; with OVCAR-3 ovarian it was 30.4 µM. Further, the TGI was above 100 µM with OVCAR-5 ovarian, 25.5 µM in the test with SK-MEL-5 melanoma, 30.3 µM with U251 CNS and 26.7 µM with UO-31 renal.
Consider `Cc1nc2ccc(S(=O)(=O)Nc3nccs3)cc2c(=O)n1NS(=O)(=O)c1nccs1`, for which the TGI in the test with HCT-15 colon, with HT29 colon, in the test with MALME-3M melanoma, in the test on NCI-H460 lung, in the test with OVCAR-3 ovarian and in the test with OVCAR-5 ovarian was above 100 µM in each case. Besides, the TGI in the test on SK-MEL-5 melanoma, with U251 CNS and with UO-31 renal was above 100 µM throughout.
For `COC(=O)C1=C(OC)[C@H]2C#C/C=C\C#C[C@@H]3Nc4c(cc(O)c5c4C(=O)c4ccccc4C5=O)[C@]24O[C@@]34[C@H]1C`, the TGI is 7.6 µM in the test with HCT-116 colon; 0.0147 µM in the test on HCT-15 colon; below 0.0409 µM in the test on HT29 colon; 0.103 µM in the test with MALME-3M melanoma; above 100 µM with NCI-H460 lung; 0.113 µM with OVCAR-3 ovarian. Besides, the TGI was 0.0311 µM in the test on OVCAR-5 ovarian, below 0.0149 µM in the test with SK-MEL-5 melanoma, below 0.0133 µM in the test with U251 CNS and below 0.01 µM in the test with UO-31 renal.
As for `COc1ccc(CNc2nc(NC3CCCCC3)nc(NC3CCCCC3)n2)cc1`, the TGI is 16 µM in the test on HCT-116 colon; 5.5 µM in the test with HCT-15 colon; above 100 µM in the test with HT29 colon; 64.2 µM in the test on MALME-3M melanoma; 15.6 µM in the test on NCI-H460 lung; above 100 µM in the test on OVCAR-3 ovarian. The TGI in the test on OVCAR-5 ovarian was above 100 µM; with SK-MEL-5 melanoma, 14.4 µM; in the test on U251 CNS it was 84.7 µM; with UO-31 renal, 67.2 µM.
`CN(C)CCCNc1ccc2ncn3c4ccc(O)cc4c(=O)c1c23`: the TGI worked out at 11.2 µM with HCT-116 colon; 16.8 µM with HCT-15 colon; 12.9 µM in the test on HT29 colon; 16 µM in the test on MALME-3M melanoma; 4.56 µM in the test with NCI-H460 lung; 17.6 µM with OVCAR-3 ovarian. Also, the TGI in the test on OVCAR-5 ovarian is 15.7 µM; in the test with SK-MEL-5 melanoma it was 9.57 µM; with U251 CNS it was 4.6 µM; in the test with UO-31 renal it was 11.4 µM.
On to `O=C(CBr)c1ccc2cc(Br)c3ccccc3c2c1`, for which the TGI in the test with HCT-116 colon was above 100 µM; in the test on HCT-15 colon it was above 100 µM; with HT29 colon, above 100 µM; in the test on MALME-3M melanoma, 34.4 µM; with NCI-H460 lung, 54.4 µM; with OVCAR-3 ovarian it was 46.9 µM. The TGI is 57.9 µM in the test on OVCAR-5 ovarian, 30.2 µM in the test on SK-MEL-5 melanoma, above 100 µM in the test on U251 CNS and 62.7 µM in the test with UO-31 renal.
For `C[n+]1c2ccccc2c(NC(CCCN=C(N)N)C(=O)O)c2ccccc21` (configuration not stated), the TGI in the test with HCT-116 colon, with HCT-15 colon, in the test on HT29 colon, in the test on MALME-3M melanoma, in the test on NCI-H460 lung and in the test with OVCAR-3 ovarian was above 100 µM throughout. The TGI with OVCAR-5 ovarian, with SK-MEL-5 melanoma, with U251 CNS and with UO-31 renal was above 100 µM in each case.
Take `O=C(N[C@@H](Cc1coc2ccccc12)B(O)O)[C@@H]1C[C@H]2CC[C@@H]1O2`: the GI50 was 3.25 µM with HCT-116 colon; 4540 nM in the test on HCT-15 colon; 3.77 µM in the test with HT29 colon; 3.07 µM with MALME-3M melanoma; 30.7 µM with NCI-H460 lung; 4.04 µM with OVCAR-3 ovarian. In addition, the GI50 is 6.8 µM in the test on OVCAR-5 ovarian, 4.25 µM in the test with SK-MEL-5 melanoma, 17.8 µM with U251 CNS and 2000 nM with UO-31 renal. Further, the TGI in the test with HCT-116 colon is 27.1 µM; in the test with HCT-15 colon it was 84.9 µM; in the test on HT29 colon, above 100 µM; in the test with MALME-3M melanoma, 20.8 µM; in the test on NCI-H460 lung it was above 100 µM; in the test with OVCAR-3 ovarian, above 100 µM. Moreover, the TGI in the test on OVCAR-5 ovarian was above 100 µM; in the test on SK-MEL-5 melanoma, 35.3 µM; in the test with U251 CNS it was above 100 µM; with UO-31 renal, 11.3 µM.
For `COc1ccc(/C=N/n2cnc3c(c2=O)SC(=C(C#N)C#N)N3c2ccccc2)cc1`, the TGI in the test on HCT-116 colon, in the test with HT29 colon, in the test on NCI-H460 lung, in the test with OVCAR-3 ovarian, with OVCAR-5 ovarian and in the test on SK-MEL-5 melanoma was above 100 µM in each case. Further, the TGI in the test on U251 CNS and in the test on UO-31 renal was above 100 µM throughout.
Consider `CCC1CC(O)c2c(O)c3c(c(O)c2C1O)C(=O)c1cccc(O)c1C3=O` (configuration not stated) (tested in a mixture with another compound), for which the TGI in the test on HCT-116 colon was 0.741 µM; in the test with HT29 colon, 0.181 µM and 0.202 µM; in the test on MALME-3M melanoma, 0.0547 µM; with NCI-H460 lung, 0.271 µM; in the test on OVCAR-3 ovarian, 0.0721 µM and 0.0312 µM; with OVCAR-5 ovarian, 0.0301 µM. In addition, the TGI in the test on SK-MEL-5 melanoma is 0.0374 µM and 0.0138 µM; in the test with U251 CNS, 0.23 µM and 0.331 µM; with UO-31 renal, 0.038 µM. Further, the GI50 in the test on HCT-15 colon is 23.7 nM.
On to `C=CCCC1(C)CCCNC1=S` (configuration not stated), for which the TGI in the test with HCT-116 colon, with HCT-15 colon, with HT29 colon, in the test with MALME-3M melanoma, in the test on NCI-H460 lung and with OVCAR-3 ovarian was above 100 µM each time. Moreover, the TGI in the test with OVCAR-5 ovarian, with SK-MEL-5 melanoma, with U251 CNS and with UO-31 renal was above 100 µM each time.
